According to ChEMBL document CHEMBL1128746, “Aminoalkylindoles: structure-activity relationships of novel cannabinoid mimetics” (J Med Chem, 1995):

Columns and labels:
[1] = molecular target: Cannabinoid receptor 1 (Rattus norvegicus) (UniProt P20272); assay: […] [3H]WIN-55212 binding to Cannabinoid receptor 1 in rat cerebellum membranes.; type: cell membranes; conditions: Membrane, concentration not given here
Mus musculus = organism: Mus musculus; assay: Concentration required to inhibit electrically induced contractions in isolated mouse vas deferens preparation in vitro; type: functional; conditions: Mus musculus

Sequence of Cannabinoid receptor 1 (Rattus norvegicus) (P20272 whole entry): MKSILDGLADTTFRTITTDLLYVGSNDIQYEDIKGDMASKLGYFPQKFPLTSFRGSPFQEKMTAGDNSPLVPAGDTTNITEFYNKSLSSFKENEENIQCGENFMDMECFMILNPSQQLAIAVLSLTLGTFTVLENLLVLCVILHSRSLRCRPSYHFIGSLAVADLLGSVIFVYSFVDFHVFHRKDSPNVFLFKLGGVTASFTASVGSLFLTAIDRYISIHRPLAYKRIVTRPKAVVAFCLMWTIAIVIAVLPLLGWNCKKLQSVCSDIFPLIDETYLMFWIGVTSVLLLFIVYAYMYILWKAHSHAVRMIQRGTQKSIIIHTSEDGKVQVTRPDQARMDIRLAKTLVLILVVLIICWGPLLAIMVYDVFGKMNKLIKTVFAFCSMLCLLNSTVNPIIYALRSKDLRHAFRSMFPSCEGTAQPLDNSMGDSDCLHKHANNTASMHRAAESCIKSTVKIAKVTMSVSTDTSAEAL

## Cc1ccccc1C(=O)c1c(C)n(CCN2CCOCC2)c2ccccc12
[1]
  inhibition: 13%
Mus musculus
  IC50: 715 nM

## COc1ccc(C(=O)c2cn(CCN3CCOCC3)c3cc(Br)ccc23)cc1
[1]
  inhibition: 21%
Mus musculus
  IC50: 17 nM

## Cc1c(C(=O)c2ccc(O)cc2)c2ccccc2n1CCN1CCOCC1
[1]
  inhibition: 15%
Mus musculus
  IC50: > 10000 nM

## Cc1[nH]c2ccccc2c1C(=O)c1cccc2ccccc12
[1]
  inhibition: 3%
Mus musculus
  IC50: > 10000 nM

## COc1ccc(C(=O)c2c(C)n(CCN3CCOCC3)c3c(OC)cccc23)cc1
[1]
  inhibition: 64%
Mus musculus
  IC50: 266 nM

## COc1ccc(C(=O)c2c(Cl)n(CCN3CCOCC3)c3ccccc23)cc1
[1]
  inhibition: 47%
Mus musculus
  IC50: 176 nM

## COc1ccc(C(=O)c2c(C)n(CCN3CCOCC3)c3cccc(C)c23)cc1
[1]
  inhibition: 42%
Mus musculus
  IC50: > 10000 nM

## Cc1c(C(=O)c2cccc3ccccc23)c2ccccc2n1CC(=O)O
[1]
  inhibition: 21%
Mus musculus
  IC50: 9740 nM

## Cc1cc(C)cc(C(=O)c2c(C)n(CCN3CCOCC3)c3ccccc23)c1
[1]
  inhibition: 42%
Mus musculus
  IC50: 390 nM

## COc1ccc(C(=O)c2cn(C(C)CN3CCOCC3)c3ccccc23)cc1 (stereo not given)
[1]
  inhibition: 35%
Mus musculus
  IC50: 3670 nM

## COc1ccc(C(=O)c2c(C)n(CCN3CCCC3)c3ccccc23)cc1
[1]
  inhibition: 7%
Mus musculus
  IC50: 241 nM

## COc1ccc(C(=O)c2c(C)n(CC[N+]3([O-])CCOCC3)c3ccccc23)cc1
[1]
  inhibition: -9%
Mus musculus
  IC50: > 10000 nM

## Cc1c(C(=O)c2cnc3ccccc3c2)c2ccccc2n1CCN1CCOCC1
[1]
  inhibition: 28%
Mus musculus
  IC50: 571 nM

## Cc1c(C(=O)c2cccc3cc4ccccc4cc23)c2ccccc2n1CCN1CCOCC1
[1]
  inhibition: 74%
Mus musculus
  IC50: 57 nM

## C[N+]1(CCn2cc(C(=O)c3cccc4ccccc34)c3ccccc32)CCOCC1
[1]
  inhibition: 14%
Mus musculus
  IC50: 180 nM

## COc1ccc(C(=O)c2c(C)n(CCCN3CCOCC3)c3ccccc23)cc1
[1]
  inhibition: -6%
Mus musculus
  IC50: 360 nM

## Cc1c(C(=O)c2ccccc2Cl)c2ccccc2n1CCN1CCOCC1
[1]
  inhibition: 59%
Mus musculus
  IC50: 92 nM

## Cc1cccc(C)c1C(=O)c1c(C)n(CCN2CCOCC2)c2ccccc12
[1]
  inhibition: -5%
Mus musculus
  IC50: 1570 nM

## Cc1c(C(=O)c2ccc(-c3ccccc3)cc2)c2ccccc2n1CCN1CCOCC1
[1]
  inhibition: 9%
Mus musculus
  IC50: 10000 nM

## COc1ccc(C(=O)c2c(C)n(CCN3CCOCC3)c3ccc(OC)cc23)cc1
[1]
  inhibition: 14%
Mus musculus
  IC50: > 10000 nM

## COc1ccc(C(=O)c2c(C)n(CCN3CCCCC3)c3ccccc23)cc1
[1]
  inhibition: 34%
Mus musculus
  IC50: 1430 nM

## COc1ccc(C(=O)c2c(C)n(CCN3CCOCC3)c3ccc(C)cc23)cc1
[1]
  inhibition: 7%
Mus musculus
  IC50: > 10000 nM

## Cc1c(C(=O)c2ccccc2F)c2ccccc2n1CCN1CCOCC1
[1]
  inhibition: 15%
Mus musculus
  IC50: 1940 nM

## COc1ccc(C(=O)c2c(C)n(CCO)c3ccccc23)cc1
[1]
  inhibition: -6%
Mus musculus
  IC50: > 10000 nM

## COc1ccc(C(=O)c2c(C)n(C(C)CN3CCOCC3)c3ccccc23)cc1 (stereo not given)
[1]
  inhibition: 34%
Mus musculus
  IC50: 1360 nM

## COc1ccc(C(=O)c2c(C)n(CCN3CCOCC3)c3ccc(F)cc23)cc1
[1]
  inhibition: 19%
Mus musculus
  IC50: 119 nM

## COc1cccc(C(=O)c2c(C)n(CCN3CCOCC3)c3ccccc23)c1
[1]
  inhibition: 76%
Mus musculus
  IC50: 206 nM

## Cc1c(C(=O)c2ccc(C#N)cc2)c2ccccc2n1CCN1CCOCC1
[1]
  inhibition: -1%
Mus musculus
  IC50: > 10000 nM

## O=C(c1ccc(Br)c2ccccc12)c1cn(CCN2CCOCC2)c2ccccc12
[1]
  inhibition: 98%
Mus musculus
  IC50: 5.5 nM

## Cc1c(C(=O)c2ccc(Cl)cc2)c2ccccc2n1CCN1CCOCC1
[1]
  inhibition: 62%
Mus musculus
  IC50: 564 nM

## O=C(c1cccc2c1CCCC2)c1cn(CCN2CCOCC2)c2ccccc12
[1]
  inhibition: 97%
Mus musculus
  IC50: 6 nM

## Cc1c(C(=O)c2cc3ccccc3c3ccccc23)c2ccccc2n1CCN1CCOCC1
[1]
  inhibition: 75%
Mus musculus
  IC50: 175 nM

## Cc1c(C=O)c2ccccc2n1CCN1CCOCC1
[1]
  inhibition: 37%
Mus musculus
  IC50: 656 nM

## N#Cc1ccc(C(=O)c2cn(CCN3CCOCC3)c3ccccc23)c2ccccc12
[1]
  inhibition: 96%
Mus musculus
  IC50: 4.8 nM

## Cc1c(C(=O)c2ccc3ccc4cccc5ccc2c3c45)c2ccccc2n1CCN1CCOCC1
[1]
  inhibition: 89%
Mus musculus
  IC50: 42 nM
